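These data come from cells grown in 96-well plates and exposed to compound for 48 hours at five concentrations. Definition used: TGI = concentration required for complete inhibition of growth.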
How the values were obtained:
Assay in all cases: NCI tumour cell line growth inhibition, 48 h
MOLT-4 leukemia = system: MOLT-4 leukemia
U251 CNS = system: U251 CNS
CCRF-CEM leukemia = system: CCRF-CEM leukemia
NCI-H522 lung = system: NCI-H522 lung
LOX IMVI melanoma = system: LOX IMVI melanoma
HCC-2998 colon = system: HCC-2998 colon
NCI-H460 lung = system: NCI-H460 lung
786-0 renal = system: 786-0 renal
HT29 colon = system: HT29 colon
RXF 393 renal = system: RXF 393 renal
SR leukemia = system: SR leukemia
SF-539 CNS = system: SF-539 CNS
SF-295 CNS = system: SF-295 CNS
EKVX NSCLC = system: EKVX NSCLC
UACC-62 melanoma = system: UACC-62 melanoma
A498 renal = system: A498 renal
SF-268 CNS = system: SF-268 CNS
DMS 114 small cell lung = system: DMS 114 small cell lung
HOP-62 NSCLC = system: HOP-62 NSCLC
SNB-19 CNS = system: SNB-19 CNS
SK-MEL-2 melanoma = system: SK-MEL-2 melanoma
DMS 273 small cell lung = system: DMS 273 small cell lung
XF 498 CNS = system: XF 498 CNS
K-562 leukemia = system: K-562 leukemia
ACHN renal = system: ACHN renal
NCI-H226 lung = system: NCI-H226 lung
UO-31 renal = system: UO-31 renal
OVCAR-4 ovarian = system: OVCAR-4 ovarian
SN12C renal = system: SN12C renal
A549 NSCLC = system: A549 NSCLC
HOP-92 NSCLC = system: HOP-92 NSCLC
HL-60(TB) leukemia = system: HL-60(TB) leukemia
KM12 colon = system: KM12 colon
M19-MEL melanoma = system: M19-MEL melanoma
SK-OV-3 ovarian = system: SK-OV-3 ovarian
CAKI-1 renal = system: CAKI-1 renal
COLO 205 colon = system: COLO 205 colon
NCI-H23 lung = system: NCI-H23 lung
SK-MEL-28 melanoma = system: SK-MEL-28 melanoma
UACC-257 melanoma = system: UACC-257 melanoma
MALME-3M melanoma = system: MALME-3M melanoma
TK-10 renal = system: TK-10 renal
SNB-78 CNS = system: SNB-78 CNS
SW-620 colon = system: SW-620 colon
IGROV1 ovarian = system: IGROV1 ovarian
SK-MEL-5 melanoma = system: SK-MEL-5 melanoma
DLD-1 colon = system: DLD-1 colon
LXFL 529 NSCLC = system: LXFL 529 NSCLC
KM20L2 colon = system: KM20L2 colon
M14 melanoma = system: M14 melanoma
HCT-116 colon = system: HCT-116 colon
OVCAR-5 ovarian = system: OVCAR-5 ovarian
OVCAR-3 ovarian = system: OVCAR-3 ovarian
SNB-75 CNS = system: SNB-75 CNS

COc1cc2ccnc(-c3c4ccccc4c(N)c4c(OC)c(OC)ccc34)c2cc1OC
TGI (MOLT-4 leukemia): 9.53 µM
TGI (U251 CNS): 14 µM
TGI (CCRF-CEM leukemia): 14.2 µM
TGI (NCI-H522 lung): 15.9 µM
TGI (LOX IMVI melanoma): 3.08 µM
TGI (HCC-2998 colon): 8.86 µM
TGI (NCI-H460 lung): 6.53 µM
TGI (786-0 renal): 11.5 µM
TGI (HT29 colon): 11.7 µM
TGI (RXF 393 renal): 6.87 µM
TGI (SR leukemia): 6.19 µM
TGI (SF-539 CNS): 4.6 µM
TGI (SF-295 CNS): 13.9 µM
TGI (EKVX NSCLC): 24.2 µM
TGI (UACC-62 melanoma): 10.1 µM
TGI (A498 renal): 8.89 µM
TGI (SF-268 CNS): 18.6 µM
TGI (DMS 114 small cell lung): 4.71 µM
TGI (HOP-62 NSCLC): 14.9 µM
TGI (SNB-19 CNS): 15.4 µM
TGI (SK-MEL-2 melanoma): 16.6 µM
TGI (DMS 273 small cell lung): 3.47 µM
TGI (XF 498 CNS): 6.75 µM
TGI (K-562 leukemia): 7.98 µM
TGI (ACHN renal): 14 µM
TGI (NCI-H226 lung): 5.66 µM
TGI (UO-31 renal): 13.5 µM
TGI (OVCAR-4 ovarian): 11.7 µM
TGI (SN12C renal): 14.1 µM
TGI (A549 NSCLC): 17.3 µM
TGI (HOP-92 NSCLC): 9.35 µM
TGI (HL-60(TB) leukemia): 4.44 µM
TGI (KM12 colon): 11.3 µM
TGI (M19-MEL melanoma): 13.7 µM
TGI (SK-OV-3 ovarian): 20.4 µM
TGI (CAKI-1 renal): 8.72 µM
TGI (COLO 205 colon): 3.09 µM
TGI (NCI-H23 lung): 17.7 µM
TGI (SK-MEL-28 melanoma): 6.92 µM
TGI (UACC-257 melanoma): 4.37 µM
TGI (MALME-3M melanoma): 11.5 µM
TGI (TK-10 renal): 22.2 µM
TGI (SNB-78 CNS): 18.3 µM
TGI (SW-620 colon): 13.1 µM
TGI (IGROV1 ovarian): 14.5 µM
TGI (SK-MEL-5 melanoma): 12.3 µM
TGI (DLD-1 colon): 16.6 µM
TGI (LXFL 529 NSCLC): 15.7 µM

CC1OC(OC2CCCc3c(O)c4c(c(O)c32)C(=O)c2ccccc2C4=O)CC(N)C1O (configuration not stated)
TGI (U251 CNS): 3.44 µM
TGI (CCRF-CEM leukemia): 2.64 µM
TGI (NCI-H522 lung): 3.06 µM
TGI (HCC-2998 colon): 3.51 µM
TGI (NCI-H460 lung): 2.8 µM
TGI (786-0 renal): 2.55 µM
TGI (HT29 colon): 2.87 µM
TGI (RXF 393 renal): 2.23 µM
TGI (SF-539 CNS): 3.01 µM
TGI (SF-295 CNS): 3.22 µM
TGI (EKVX NSCLC): 3.27 µM
TGI (KM20L2 colon): 3.84 µM
TGI (M14 melanoma): 3.21 µM
TGI (A498 renal): 3.23 µM
TGI (SF-268 CNS): 3.29 µM
TGI (HOP-62 NSCLC): 2.94 µM
TGI (SNB-19 CNS): 3.04 µM
TGI (SK-MEL-2 melanoma): 3.21 µM
TGI (HCT-116 colon): 3.11 µM
TGI (K-562 leukemia): 2.35 µM
TGI (ACHN renal): 3.35 µM
TGI (UO-31 renal): 3.11 µM
TGI (OVCAR-4 ovarian): 3.2 µM
TGI (A549 NSCLC): 3.37 µM
TGI (HOP-92 NSCLC): 2.86 µM
TGI (OVCAR-5 ovarian): 3.44 µM
TGI (KM12 colon): 2.98 µM
TGI (M19-MEL melanoma): 3.24 µM
TGI (SK-OV-3 ovarian): 2.42 µM
TGI (CAKI-1 renal): 2.91 µM
TGI (NCI-H23 lung): 3.22 µM
TGI (SK-MEL-28 melanoma): 3.32 µM
TGI (UACC-257 melanoma): 3 µM
TGI (OVCAR-3 ovarian): 2.62 µM
TGI (MALME-3M melanoma): 3.27 µM
TGI (TK-10 renal): 3.02 µM
TGI (SNB-75 CNS): 2.66 µM
TGI (DLD-1 colon): 2.69 µM
TGI (LXFL 529 NSCLC): 2.94 µM
